According to patent US20260060250A1, “HERBICIDAL PYRIDONE DERIVATIVES” (SYNGENTA CROP PROTECTION AG, priority 2022, published 2026):

Tests used:
Type in all cases: in vivo
Settings in all cases: evaluated after 13 days
[1] = tested on: Amaranthus palmeri (AMAPA); assay: Pre-emergence Test (Table B1)
[2] = tested on: Amaranthus retroflexus (AMARE); assay: Pre-emergence Test (Table B1)
[3] = tested on: Ipomoea hederacea (IPOHE); assay: Post-emergence Test (Table B2)
Method in brief: (§1)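 Test compound, formulated in acetone/water (50:50) containing 0.5% Tween 20, is sprayed at 1000 g/ha (unless otherwise stated) onto seed-sown pots. Plants are kept at 24 °C/16 °C, 14 h light, 65% humidity, watered twice daily, and assessed for % damage after 13 days.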

[4] = tested on: Echinochloa crus-galli (ECHCG); assay: Post-emergence Test (Table B2)
Method in brief: as §1

Zea mays (ZEAMX) [5] = assay: Post-emergence Test (Table B2)
Method in brief: as §1

[6] = tested on: Echinochloa crus-galli (ECHCG); assay: Pre-emergence Test (Table B1); set-up: key: 5=81-100%; 4=61-80%; 3=41-60%; 2=21-40%; 1=0-20%; 0=inactive
[7] = tested on: Amaranthus retroflexus (AMARE); assay: Post-emergence Test (Table B2)
Method in brief: as §1

[8] = tested on: Amaranthus palmeri (AMAPA); assay: Post-emergence Test (Table B2)
Method in brief: as §1

Setaria faberi (SETFA) [9] = assay: Post-emergence Test (Table B2)
Method in brief: as §1

Zea mays (ZEAMX) [10] = assay: Pre-emergence Test (Table B1); set-up: key: 5=81-100%; 4=61-80%; 3=41-60%; 2=21-40%; 1=0-20%; 0=inactive
[11] = tested on: Ipomoea hederacea (IPOHE); assay: Pre-emergence Test (Table B1); set-up: key: 5=81-100%; 4=61-80%; 3=41-60%; 2=21-40%; 1=0-20%; 0=inactive
Setaria faberi (SETFA) [12] = assay: Pre-emergence Test (Table B1); set-up: key: 5=81-100%; 4=61-80%; 3=41-60%; 2=21-40%; 1=0-20%; 0=inactive
[13] = lower rate of 250 g per hectare

| SMILES | percentage damage caused to the plant, AMAPA ([1]; 1000 g/ha) | percentage damage caused to the plant, AMARE ([2]; 1000 g/ha) | percentage damage caused to the plant, IPOHE ([3]; 1000 g/ha) | percentage damage caused to the plant, ECHCG ([4]; 1000 g/ha) | percentage damage caused to the plant, ZEAMX (Zea mays (ZEAMX) [5]; 1000 g/ha) | percentage damage caused to the plant, ECHCG ([6]; 1000 g/ha) | percentage damage caused to the plant, AMARE ([7]; 1000 g/ha) | percentage damage caused to the plant, AMAPA ([8]; 1000 g/ha) | percentage damage caused to the plant, SETFA (Setaria faberi (SETFA) [9]; 1000 g/ha) | percentage damage caused to the plant, ZEAMX (Zea mays (ZEAMX) [10]; 1000 g/ha) | percentage damage caused to the plant, IPOHE ([11]; 1000 g/ha) | percentage damage caused to the plant, SETFA (Setaria faberi (SETFA) [12]; 1000 g/ha) | other results |
| --- | --- | --- | --- | --- | --- | --- | --- | --- | --- | --- | --- | --- | --- |
| CCn1c(C)c(-c2cc(C(=O)OC(C)C(C)=O)ccc2F)c(=O)c(C(=O)O)c1-c1ccc(Cl)c(Cl)c1 (stereo not drawn) [Compound 10, 2-(3,4-dichlorophenyl)-1-ethyl-5-[2-fluoro-5-(1-methyl-2-oxo-propoxy)carbonyl-phenyl]-6-methyl-4-oxo-pyridine-3-carboxylic acid] | 5 (5=81-100%) | 5 (5=81-100%) | 1 (1=0-20%) | 2 (2=21-40%) | 3 (3=41-60%) | 0 | 5 (5=81-100%) | 5 (5=81-100%) | 4 (4=61-80%) | 0 | 0 | 0 | – |
| CCn1c(C)c(-c2cc(C(=O)OC3CCC3)c(Cl)cc2F)c(=O)c(C(=O)O)c1-c1ccc(Cl)c(Cl)c1 [Compound 23, 5-[4-chloro-5-(cyclobutoxycarbonyl)-2-fluoro-phenyl]-2-(3,4-dichlorophenyl)-1-ethyl-6-methyl-4-oxo-pyridine-3-carboxylic acid] | 5 (5=81-100%) | 5 (5=81-100%) | 2 (2=21-40%) | 4 (4=61-80%) | 2 (2=21-40%) | 5 (5=81-100%) | 5 (5=81-100%) | 5 (5=81-100%) | 5 (5=81-100%) | 2 (2=21-40%) | 4 (4=61-80%) | 5 (5=81-100%) | – |
| CCn1c(C)c(-c2cc(C(=O)OC(C)C(F)(F)F)ccc2F)c(=O)c(C(=O)O)c1-c1ccc(Cl)c(Cl)c1 (stereo not drawn) [Compound 7, 2-(3,4-dichlorophenyl)-1-ethyl-5-[2-fluoro-5-(2,2,2-trifluoro-1-methyl-ethoxy)carbonyl-phenyl]-6-methyl-4-oxo-pyridine-3-carboxylic acid] | 5 (5=81-100%) | 5 (5=81-100%) | 1 (1=0-20%) | 3 (3=41-60%) | 2 (2=21-40%) | 2 (2=21-40%) | 5 (5=81-100%) | 5 (5=81-100%) | 4 (4=61-80%) | 1 (1=0-20%) | 1 (1=0-20%) | 2 (2=21-40%) | – |
| CC#CC(C)OC(=O)c1cc(-c2c(C)n(CC)c(-c3ccc(Cl)c(Cl)c3)c(C(=O)O)c2=O)c(F)cc1Cl (stereo not drawn) [Compound 22, 5-[4-chloro-2-fluoro-5-(1-methylbut-2-ynoxycarbonyl)phenyl]-2-(3,4-dichlorophenyl)-1-ethyl-6-methyl-4-oxo-pyridine-3-carboxylic acid] | – | – | – | – | – | – | – | – | – | – | – | – | percentage damage caused to the plant, AMAPA [1, 13]: 5 (5=81-100%); percentage damage caused to the plant, AMARE [2, 13]: 5 (5=81-100%); percentage damage caused to the plant, IPOHE [3, 13]: 5 (5=81-100%); percentage damage caused to the plant, ECHCG [4, 13]: 5 (5=81-100%); percentage damage caused to the plant, ZEAMX (Zea mays (ZEAMX) [5]; [13]): 3 (3=41-60%); percentage damage caused to the plant, ECHCG [6, 13]: 1 (1=0-20%); percentage damage caused to the plant, AMARE [7, 13]: 5 (5=81-100%); percentage damage caused to the plant, AMAPA [8, 13]: 5 (5=81-100%); percentage damage caused to the plant, SETFA (Setaria faberi (SETFA) [9]; [13]): 5 (5=81-100%); percentage damage caused to the plant, ZEAMX (Zea mays (ZEAMX) [10]; [13]): 1 (1=0-20%); percentage damage caused to the plant, IPOHE [11, 13]: 1 (1=0-20%); percentage damage caused to the plant, SETFA (Setaria faberi (SETFA) [12]; [13]): 1 (1=0-20%) |
| CCC#CC(C)OC(=O)c1ccc(F)c(-c2c(C)n(CC)c(-c3ccc(Cl)c(Cl)c3)c(C(=O)O)c2=O)c1 (stereo not drawn) [Compound 11, 2-(3,4-dichlorophenyl)-1-ethyl-5-[2-fluoro-5-(1-methylpent-2-ynoxycarbonyl)phenyl]-6-methyl-4-oxo-pyridine-3-carboxylic acid] | 5 (5=81-100%) | 5 (5=81-100%) | 3 (3=41-60%) | 4 (4=61-80%) | 2 (2=21-40%) | 0 | 5 (5=81-100%) | 5 (5=81-100%) | 4 (4=61-80%) | 0 | 0 | 0 | – |
